Reference: patent US11917908B2, “Organic compound, optical device, light-emitting device, light-emitting apparatus, electronic device, and lighting device” (SEMICONDUCTOR ENERGY LABORATORY CO., LTD., priority 2019, dated 2024)

Key:
Format in all cases: physicochemical
[1] = Thermogravimetry-differential thermal analysis (TG-DTA), weight reduction temperature; conditions: for Temperature at TG −5% (weight reduction temperature): weight reduced from initial weight by 5%; for Temperature at TG −5% (weight reduction temperature) / Temperature at TG −10% (weight reduction temperature) / Temperature at TG −50% (weight reduction temperature): 10 Pa, temperature rising rate 10° C./min; for Temperature at TG −10% (weight reduction temperature): weight reduced from initial weight by 10%; for Temperature at TG −50% (weight reduction temperature): weight reduced from initial weight by 50%
Experimental: The thermogravimetry-differential thermal analysis (TG-DTA) of these four substances was performed. The measurement was performed with a high vacuum differential type differential thermal balance (TG-DTA2410SA, produced by Bruker AXS K.K.). […] The temperatures of the time when the weight of the organic compounds is reduced from the initial weight by 5%, 10%, and 50% (weight reduction temperature) are shown in Table 3.

[2] = Behaviour at sublimation purification; conditions: at the time of sublimation purification
[3] = Solubility in a solvent (toluene, 25° C.); conditions: for solubility: organic solvent or mixture, 1M
Experimental: The measurement results on the solubility of 3,10PCA2Nbf(IV)-02 and 3,10mmtBuPCA2Nbf(IV)-02 in a solvent are shown below. The solubility in the table are that in toluene at 25° C. Consequently, the organic compound of one embodiment of the present invention has improved solubility in a solvent owing to the bonding of the secondary or tertiary alkyl groups having 3 to 6 carbon atoms and having a branched carbon atom which is bonded to the phenyl group to the two meta-positions of the phenyl group bonded to the 9-position of the carbazolyl group. Thus, the organic compound of one embodiment of the present invention can be easily produced owing to the easy purification.

SMILES	Temperature at TG −5% (weight reduction temperature) [1]	Temperature at TG −10% (weight reduction temperature) [1]	Temperature at TG −50% (weight reduction temperature) [1]	Stability at sublimation purification [2]	solubility [3]	Sublimability (from weight reduction temperatures) ([1]; comparison of the four substances of Table 3)	Solubility 0.01M ([3]; 0.01M)	Solubility 0.1M ([3]; 0.1M)
CCc1cc(CC)cc(-n2c3ccccc3c3ccc(N(c4ccccc4)c4ccc5c(c4)oc4cc6cc7c(cc6cc45)oc4cc(N(c5ccccc5)c5ccc6c8ccccc8n(-c8cc(CC)cc(CC)c8)c6c5)ccc47)cc32)c1 [3,10mmEtPCA2Nbf(IV)-02, N,N-bis[9-(3,5-diethylphenyl)-9H-carbazol-2-yl]-N,N-diphenyl-naphtho[2,3-b;6,7-b′]bisbenzofuran-3,10-diamine]	380 °C	402 °C	436 °C					
CCCCCCc1cc(CCCCCC)cc(-n2c3ccccc3c3ccc(N(c4ccccc4)c4ccc5c(c4)oc4cc6cc7c(cc6cc45)oc4cc(N(c5ccccc5)c5ccc6c8ccccc8n(-c8cc(CCCCCC)cc(CCCCCC)c8)c6c5)ccc47)cc32)c1 [3,10mmHexPCA2Nbf(IV)-02, N,N-bis[9-(3,5-dihexylphenyl)-9H-carbazol-2-yl]-N,N-diphenyl-naphtho[2,3-b;6,7-b′]bisbenzofuran-3,10-diamine]	384 °C	407 °C	442 °C	decomposed at the time of sublimation purification				
c1ccc(N(c2ccc3c(c2)oc2cc4cc5c(cc4cc23)oc2cc(N(c3ccccc3)c3ccc4c6ccccc6n(-c6ccccc6)c4c3)ccc25)c2ccc3c4ccccc4n(-c4ccccc4)c3c2)cc1 [3,10PCA2Nbf(IV)-02, 3,10-bis[N-(9-phenyl-9H-carbazol-2-yl)-N-phenylamino]naphtho[2,3-b;6,7-b′]bisbenzofuran]	398 °C	411 °C	442 °C		< 10 mM			
CC(C)(C)c1cc(-n2c3ccccc3c3ccc(N(c4ccccc4)c4ccc5c(c4)oc4cc6cc7c(cc6cc45)oc4cc(N(c5ccccc5)c5ccc6c8ccccc8n(-c8cc(C(C)(C)C)cc(C(C)(C)C)c8)c6c5)ccc47)cc32)cc(C(C)(C)C)c1 [3,10mmtBuPCA2Nbf(IV)-02, N,N-bis[9-(3,5-di-tert-butylphenyl)-9H-carbazol-2-yl]-N,N-diphenyl-naphtho[2,3-b;6,7-b′]bisbenzofuran-3,10-diamine]	378 °C	394 °C	423 °C		< 1000 mM	highest sublimability	∘	∘
